This note sets out measurements from EP4722216A1, “PYRROLOPYRIMIDINE DERIVATIVE AND USE THEREOF IN MEDICINE” (Kangbaida (Sichuan) Biotechnology Co., Ltd., priority 2023, dated 2024).

One series deals with T1, FGFR2 (Homo sapiens, UniProt P21802).
T1 construct: purchased Carna 08-134
Nature of the series: FGFR1-4 enzymology, HTRF method (FGFR2). It counts as biochemical. Conditions: FGFR2 0.08 nM, substrate (TK) 1 µM, ATP 20 µM. As for the experimental part: (§1) The inhibitory effects of compounds on the enzymatic activities of FGFR1, 2, 3, and 4 were detected by using HTRF method (PerkinElmer, 62TK0PEJ). 2× Enzyme and 2× substrate /ATP mixed solutions were prepared using a buffer solution. The final concentrations of FGFR1 enzyme (Cama, 08-133), the substrate (TK), and ATP were 0.10 nM, 1 µM, and 40 µM, respectively; the final concentrations of FGFR2 (Carna, 08-134), the substrate (TK), and ATP were 0.08 nM, 1 µM, and 20 µM, respectively; the final concentrations of FGFR3 (Cama, 08-135), the substrate (TK), and ATP were 0.30 nM, 1 µM, and 50 µM, respectively; and the final concentrations of FGFR4 (Carna, 08-136), the substrate (TK), and ATP were 10 nM, 1 µM, and 50 µM, respectively. The compound stock solution was diluted to 100× working concentration using DMSO. 50 nL/well of the compound was transferred to a 384-well plate using Echo, with 2 replicate wells per concentration. 2.5 µL/well of 2× kinase solution was added to reaction wells, mixed and incubated at 25°C for 10 min. 2.5 µL/well of 2× substrate/ATP solution was added to reaction wells and incubated at 25°C for 50 min. 2× Streptavidin-XL665/Cryptate-antibody mixed solution was prepared using a detection buffer solution (containing EDTA). 5 µL/well of a kinase detection reagent was added to the reaction wells and incubated at 25°C for 60 min. Fluorescence signals at 620 nm (Cryptate) and 665 nm (XL665) were read by a multifunctional microplate reader. IC50 (median inhibitory concentration) of the compound was calculated using the GraphPad nonlinear fitting formula, Y=Bottom + (Top-Bottom)/(1+10^((LogIC50-X) ×HillSlope)), in which X: the logarithmic value of the concentration of the compound; and Y: the inhibition rate of the compound (% inhibition).

A further series concerns the target T2, FGFR3 (Homo sapiens, UniProt P22607).
T2 construct: purchased Carna 08-135
Nature of the series: FGFR1-4 enzymology, HTRF method (FGFR3). The class given is biochemical. Conditions: FGFR3 0.30 nM, substrate (TK) 1 µM, ATP 50 µM. As to the method: as §1

The next series concerns the target T3, FGFR4 (Homo sapiens, UniProt P22455).
T3 construct: purchased Carna 08-136
Nature of the series: FGFR1-4 enzymology, HTRF method (FGFR4). The class given is biochemical. Conditions: FGFR4 10 nM, substrate (TK) 1 µM, ATP 50 µM. As for the experimental part: as §1

For the next series, the target named is T4, FGFR1 (Homo sapiens, UniProt P11362).
T4 construct: purchased Carna 08-133
Nature of the series: FGFR1-4 enzymology, HTRF method (FGFR1). The class given is biochemical. Conditions: FGFR1 enzyme 0.10 nM, substrate (TK) 1 µM, ATP 40 µM. As for the experimental part: as §1

The nature of series [1]: Pharmacokinetic study in rats in vivo. The note with it: SD rats; for F: intragastric 5 mg/kg versus intravenous 1 mg/kg; for AUC0-t / Cmax / half-life: male, rat, po, Plasma, intragastric administration 5 mg/kg. As to the method:
An appropriate amount of the test substance was weighed and formulated into a 0.5 mg/mL transparent and clear solution using 10% DMSO + 5% HS-15 + 85% Saline for intravenous administration. The test substance was formulated into a 1 mg/mL uniform suspension using 10% DMSO + 5% HS-15 + 85% Saline for intragastric administration. 6 healthy male SD rats (Charles River, SPF grade) were taken, with 3 animals assigned to the intravenous group and three to the intragastric group, respectively. With 3 animals per time point, blood samples were collected via the jugular vein. Blood samples were collected at 5 min, 15 min, 0.5, 1, 2, 4, 8, and 24 h after intravenous administration of the test substance (1 mg/kg), and blood samples were collected at 15 min, 0.5, 1, 2, 4, 6, 8, and 24 h after intragastric administration of the test substance (5 mg/kg). After anticoagulation with EDTA-K2, the blood samples were centrifuged at 6000 g at 4°C for 5 min to separate plasma, and all plasma samples were stored at -70°C for testing. The drug concentration of the test substance in plasma was determined by LC-MS/MS method (with gliclazide as an internal standard), and the main pharmacokinetic parameters were calculated by Winnolin 8.3 non-compartment model. The intragastric administration results are as follows: […]

Series [2] in a line: Pharmacokinetic study on mouse brain tissue (plasma/cerebrospinal fluid/brain tissue). Conditions: ICR mice, intragastric administration 10 mg/kg; for Tmax / half-life: male, mouse, po. It counts as in vivo. As for the experimental part:
An appropriate amount of the test substance was weighed and formulated into a 1 mg/mL transparent and clear solution using 10% DMSO + 5% HS-15 + 85% Saline for intragastric administration. 24 healthy male ICR mice (Charles River, SPF grade) were taken, with 3 animals per time point. Blood samples were collected at 15 min, 0.5, 1, 2, 4, 6, 8, and 24 h after intragastric administration of the test substance (10 mg/kg). The blood sample was anticoagulated with EDTA-K2 and then centrifuged at 6000 g at 4°C for 5 min to separate plasma. The plasma was stored at - 70°C for testing. After blood collection, the animal was sacrificed to collect cerebrospinal fluid, which was stored at -70°C for testing. The brain tissue was rinsed with ice-cold normal saline to remove the residual blood, blotted dry with absorbent paper, and then stored at -70°C for testing. The drug concentration of the specified compound in the plasma/cerebrospinal fluid/brain tissue was determined using LC-MS/MS method (with Gliclazide as an internal standard). The main pharmacokinetic parameters were calculated using a Winnolin 8.3 noncompartmental model.

The target of a further series is FGFR2 V564F (Homo sapiens, UniProt P21802, V564F). Nature of the series: FGFR2 and FGFR3 mutant enzymology, HTRF method (FGFR2 V564F). It counts as biochemical. The note with it: kinase 0.02 nM, substrate 1 µM, ATP 15 µM. As to the method:
(§2) The inhibitory effects of the compounds on the enzymatic activities of FGFR2 and FGFR3 mutants by using HTRF method (PerkinElmer, 62TK0PEJ). 2× Enzyme and 2× substrate /ATP mixed solutions were prepared using a buffer solution.
(§3) The compound stock solution was diluted to 100× working concentration using DMSO. 50 nL/well of the compound was transferred to a 384-well plate using Echo, with 2 replicate wells per concentration. 2.5 µL/well of 2× kinase solution was added to reaction wells, mixed and incubated at 25°C for 10 min. 2.5 µL/well of 2× substrate/ATP solution was added to reaction wells and incubated at 25°C for 50 min. 2× Streptavidin-XL665/Cryptate-antibody mixed solution was prepared using a detection buffer solution (containing EDTA). 5 µL/well of a kinase detection reagent was added to the reaction wells and incubated at 25°C for 60 min. Fluorescence signals at 620 nm (Cryptate) and 665 nm (XL665) were read by a multifunctional microplate reader. According to the test results, the inhibition rate was calculated. […] IC50 (median inhibitory concentration) of the compound was calculated using the GraphPad nonlinear fitting formula, Y = Bottom + (Top-Bottom)/(1+10^((LogIC50-X) ×HillSlope)), in which X: the logarithmic value of the concentration of the compound; and Y: the inhibition rate of the compound (% inhibition).

The next series has as its target FGFR2 N549H (Homo sapiens, UniProt P21802, N549H). Nature of the series: FGFR2 and FGFR3 mutant enzymology, HTRF method (FGFR2 N549H). The class given is biochemical. Conditions: kinase 0.02 nM, substrate 1 µM, ATP 9 µM. As to the method:
as §2, §3

In a further series the target is FGFR3 V555M (Homo sapiens, UniProt P22607, V555M). Briefly: FGFR2 and FGFR3 mutant enzymology, HTRF method (FGFR3 V555M). The class given is biochemical. Conditions: kinase 0.55 nM, substrate 1 µM, ATP 20 µM. As for the experimental part: as §2, §3
The next series addresses FGFR2 V564I (Homo sapiens, UniProt P21802, V564I). Briefly: FGFR2 and FGFR3 mutant enzymology, HTRF method (FGFR2 V564I). The class given is biochemical. Conditions: kinase 0.03 nM, substrate 1 µM, ATP 20 µM. As to the method: as §2, §3
The target in a further series is FGFR3 K650M (Homo sapiens, UniProt P22607, K650M). Nature of the series: FGFR2 and FGFR3 mutant enzymology, HTRF method (FGFR3 K650M). The class given is biochemical. The note with it: kinase 0.10 nM, substrate 1 µM, ATP 12 µM. As for the experimental part:
as §2, §3

T1 sequence (P21802 22-821): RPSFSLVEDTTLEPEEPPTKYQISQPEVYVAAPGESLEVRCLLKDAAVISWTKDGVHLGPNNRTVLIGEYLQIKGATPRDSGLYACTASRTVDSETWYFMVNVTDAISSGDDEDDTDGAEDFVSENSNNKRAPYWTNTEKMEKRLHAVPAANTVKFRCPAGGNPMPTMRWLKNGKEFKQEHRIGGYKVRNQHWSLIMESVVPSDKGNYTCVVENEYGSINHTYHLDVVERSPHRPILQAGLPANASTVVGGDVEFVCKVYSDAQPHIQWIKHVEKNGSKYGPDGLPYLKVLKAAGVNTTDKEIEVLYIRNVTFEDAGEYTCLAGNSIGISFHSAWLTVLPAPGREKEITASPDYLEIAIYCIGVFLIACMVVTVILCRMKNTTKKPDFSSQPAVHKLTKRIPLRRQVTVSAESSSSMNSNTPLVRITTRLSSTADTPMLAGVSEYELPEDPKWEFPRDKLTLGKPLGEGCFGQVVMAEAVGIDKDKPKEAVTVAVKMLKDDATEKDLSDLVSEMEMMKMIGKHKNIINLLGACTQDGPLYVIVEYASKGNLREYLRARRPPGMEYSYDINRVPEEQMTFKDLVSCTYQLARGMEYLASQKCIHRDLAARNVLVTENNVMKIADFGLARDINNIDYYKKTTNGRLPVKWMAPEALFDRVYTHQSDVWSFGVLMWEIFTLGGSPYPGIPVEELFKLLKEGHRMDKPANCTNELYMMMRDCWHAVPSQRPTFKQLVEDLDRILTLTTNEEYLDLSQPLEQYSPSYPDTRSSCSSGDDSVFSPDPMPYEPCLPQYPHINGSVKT
T4 sequence (P11362 22-822): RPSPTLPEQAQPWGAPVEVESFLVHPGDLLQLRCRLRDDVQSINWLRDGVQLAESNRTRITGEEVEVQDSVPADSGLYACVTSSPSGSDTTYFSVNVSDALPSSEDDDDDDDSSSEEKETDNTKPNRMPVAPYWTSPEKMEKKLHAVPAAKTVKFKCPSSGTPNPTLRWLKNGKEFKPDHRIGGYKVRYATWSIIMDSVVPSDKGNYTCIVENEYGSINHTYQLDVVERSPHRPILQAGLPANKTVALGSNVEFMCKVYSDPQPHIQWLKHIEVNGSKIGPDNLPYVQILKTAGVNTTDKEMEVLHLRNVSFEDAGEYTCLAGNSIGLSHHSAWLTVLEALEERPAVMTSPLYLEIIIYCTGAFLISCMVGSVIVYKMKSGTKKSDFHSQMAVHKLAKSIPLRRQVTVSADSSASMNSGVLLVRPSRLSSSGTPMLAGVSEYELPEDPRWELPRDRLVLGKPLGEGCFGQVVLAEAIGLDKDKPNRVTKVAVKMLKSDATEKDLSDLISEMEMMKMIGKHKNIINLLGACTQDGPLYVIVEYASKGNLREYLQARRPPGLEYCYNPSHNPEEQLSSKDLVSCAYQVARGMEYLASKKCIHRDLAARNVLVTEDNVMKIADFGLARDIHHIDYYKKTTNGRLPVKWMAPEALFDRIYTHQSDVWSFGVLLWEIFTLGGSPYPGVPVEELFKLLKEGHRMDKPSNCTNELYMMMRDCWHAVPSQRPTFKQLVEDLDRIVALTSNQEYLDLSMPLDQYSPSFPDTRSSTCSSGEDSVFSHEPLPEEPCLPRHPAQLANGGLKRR
T2 sequence (P22607 23-806): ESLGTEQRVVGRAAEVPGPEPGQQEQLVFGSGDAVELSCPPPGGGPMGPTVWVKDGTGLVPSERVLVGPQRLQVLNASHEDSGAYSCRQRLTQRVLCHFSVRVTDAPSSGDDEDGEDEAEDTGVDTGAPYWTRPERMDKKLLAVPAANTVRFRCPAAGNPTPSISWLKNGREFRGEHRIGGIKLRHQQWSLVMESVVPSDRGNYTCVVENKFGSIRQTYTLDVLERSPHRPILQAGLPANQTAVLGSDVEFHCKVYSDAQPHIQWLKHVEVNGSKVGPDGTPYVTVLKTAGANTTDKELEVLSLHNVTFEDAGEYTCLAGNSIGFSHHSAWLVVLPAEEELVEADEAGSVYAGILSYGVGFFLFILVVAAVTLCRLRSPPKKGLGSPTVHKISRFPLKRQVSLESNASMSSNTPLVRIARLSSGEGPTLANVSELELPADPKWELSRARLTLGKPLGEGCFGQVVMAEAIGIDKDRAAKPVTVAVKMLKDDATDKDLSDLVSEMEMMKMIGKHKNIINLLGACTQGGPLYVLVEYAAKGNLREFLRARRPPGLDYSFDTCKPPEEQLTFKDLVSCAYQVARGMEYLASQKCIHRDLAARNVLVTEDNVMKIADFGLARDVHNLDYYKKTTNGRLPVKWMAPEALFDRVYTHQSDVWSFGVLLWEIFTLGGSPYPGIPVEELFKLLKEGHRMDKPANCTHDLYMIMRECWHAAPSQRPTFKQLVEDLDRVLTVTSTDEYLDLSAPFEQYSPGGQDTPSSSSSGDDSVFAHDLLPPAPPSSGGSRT
T3 sequence (P22455 22-802): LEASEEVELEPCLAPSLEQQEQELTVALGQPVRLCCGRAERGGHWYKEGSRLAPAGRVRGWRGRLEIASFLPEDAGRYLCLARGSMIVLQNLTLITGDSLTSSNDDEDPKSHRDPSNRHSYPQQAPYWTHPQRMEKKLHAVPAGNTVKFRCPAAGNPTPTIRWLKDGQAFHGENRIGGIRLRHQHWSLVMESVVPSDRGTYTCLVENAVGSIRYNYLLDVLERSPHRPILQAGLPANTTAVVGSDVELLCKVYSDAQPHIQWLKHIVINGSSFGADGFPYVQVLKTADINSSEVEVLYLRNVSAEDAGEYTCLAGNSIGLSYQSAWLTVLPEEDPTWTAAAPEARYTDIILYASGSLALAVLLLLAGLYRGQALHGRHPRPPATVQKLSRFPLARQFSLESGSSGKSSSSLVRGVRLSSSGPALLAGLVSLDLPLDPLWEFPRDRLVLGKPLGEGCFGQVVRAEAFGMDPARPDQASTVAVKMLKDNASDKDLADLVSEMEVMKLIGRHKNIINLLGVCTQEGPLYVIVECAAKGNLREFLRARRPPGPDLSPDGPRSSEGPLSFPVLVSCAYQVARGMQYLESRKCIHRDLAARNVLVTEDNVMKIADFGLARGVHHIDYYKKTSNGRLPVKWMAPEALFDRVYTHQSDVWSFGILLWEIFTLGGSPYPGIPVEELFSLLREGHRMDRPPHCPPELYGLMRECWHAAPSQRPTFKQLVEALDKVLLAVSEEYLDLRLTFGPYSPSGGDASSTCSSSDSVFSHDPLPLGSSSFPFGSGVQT
Sequence of FGFR3 V555M (P22607 23-806 V555M): as the sequence (P22607 23-806) above, with V533M counted along it
Sequence of FGFR2 N549H (P21802 22-821 N549H): as the sequence (P21802 22-821) above, with N528H counted along it
Sequence of FGFR2 V564I (P21802 22-821 V564I): as the sequence (P21802 22-821) above, with V543I counted along it
Sequence of FGFR2 V564F (P21802 22-821 V564F): as the sequence (P21802 22-821) above, with V543F counted along it
Sequence of FGFR3 K650M (P22607 23-806 K650M): as the sequence (P22607 23-806) above, with K628M counted along it

On to `C=C(C(=O)Nc1ccc(-c2c(-c3ccc(Oc4nccc(C)n4)c(F)c3)c3c(N)ncnc3n2C)cn1)C1CC1` [Compound 2, N-(5-(4-amino-5-(3-fluoro-4-((4-methylpyrimidin-2-yl)oxy)phenyl)-7-methyl-7H-pyrrolo[2,3-d]pyrimidin-6-yl)pyridin-2-yl]-2-cyclopropylacrylamide], for which the IC50 against FGFR2 was 12 nM; at FGFR3 it was 149 nM; against FGFR4 it was greater than 1000 nM; against FGFR1, 407 nM.
The like results for `C=C(C(=O)Nc1ccc(-c2c(-c3ccc(Oc4cccc(Cl)n4)c(F)c3)c3c(N)ncnc3n2C)cc1)C1CC1` [Compound 9, N-(4-(4-amino-5-(4-((6-chloropyridin-2-yl)oxy)-3-fluorophenyl)-7-methyl-7H-pyrrolo[2,3-d]pyrimidin-6-yl)phenyl)-2-cyclopropylacrylamide] were, in that order, 65.5 nM, greater than 1000 nM, greater than 1000 nM and greater than 1000 nM.
For `C=C(C(=O)Nc1ccc(-c2c(-c3ccc(Oc4nccc(C)n4)c(F)c3)c3c(N)ncnc3n2C)c(F)c1)C1CC1` [Compound 5, N-(4-(4-amino-5-(3-fluoro-4-((4-methylpyrimidin-2-yl)oxy)phenyl)-7-methyl-7H-pyrrolo[2,3-d]pyrimidin-6-yl)-3-fluorophenyl)-2-cyclopropylacrylamide] the same measures were 7.3 nM, 246 nM, greater than 1000 nM and 550 nM.
The molecule `C=C(C(=O)Nc1ccc(-c2c(-c3ccc(Oc4nccc(C)n4)c(F)c3)c3c(N)ncnc3n2C)cc1)C1CC1` [Compound 1, N-(4-(4-amino-5-(3-fluoro-4-((4-methylpyrimidin-2-yl)oxy)phenyl)-7-methyl-7H-pyrrolo[2,3-d]pyrimidin-6-yl)phenyl]-2-cyclopropylacrylamide] gave a F in series [1] of 90.8%. The AUC0-t in series [1] is 3190 ng·h/mL; in series [2] (Brain tissue), 524 h*ng/mL or h*ng/g; in [2] (Cerebrospinal fluid) it was 59 h*ng/mL or h*ng/g; in [2] (Plasma), 50857 h*ng/mL or h*ng/g. Moreover, the Cmax in [1] worked out at 938 ng/mL. Moreover, the half-life was 1.9 h in series [1], 3 h in series [2] (Brain tissue), 6.3 h in series [2] (Cerebrospinal fluid) and 3.1 h in series [2] (Plasma). The 50% inhibitory concentration (IC50) was 23.8 nM at FGFR2, greater than 1000 nM on FGFR3, greater than 1000 nM at FGFR4 and greater than 1000 nM against FGFR1. Moreover, the Tmax came out at 1 h in [2] (Brain tissue), 0.5 h in [2] (Cerebrospinal fluid) and 1 h in series [2] (Plasma).
For `C=C(C(=O)Nc1ccc(-c2c(-c3ccc(Oc4nccc(C)n4)c(F)c3)c3c(N)ncnc3n2C)c(Cl)c1)C1CC1` [Compound 4, N-(4-(4-amino-5-(3-fluoro-4-((4-methylpyrimidin-2-yl)oxy)phenyl)-7-methyl-7H-pyrrolo[2,3-d]pyrimidin-6-yl)-3-chlorophenyl)-2-cyclopropylacrylamide], the IC50 came to 0.5 nM against FGFR2 V564F; 5.2 nM on FGFR2 N549H; 1.7 nM against FGFR2; 64.2 nM on FGFR3; 120 nM at FGFR3 V555M; 15 nM against FGFR2 V564I. Besides, the results for the IC50 on FGFR4, against FGFR3 K650M and against FGFR1 were greater than 1000 nM, 271 nM and 165 nM, respectively. The molecule also gave a F in series [1] of 24.2%. Besides, the AUC0-t is 787 ng·h/mL in [1], 277 h*ng/mL or h*ng/g in series [2] (Brain tissue), 9 h*ng/mL or h*ng/g in series [2] (Cerebrospinal fluid) and 21966 h*ng/mL or h*ng/g in series [2] (Plasma). Also, the concentration in series [1] peaked (Cmax) at 273 ng/mL. Moreover, the values for the half-life in series [1], in series [2] (Brain tissue) and in series [2] (Plasma) were 0.9 h, 1.7 h and 1.8 h, respectively. For the same molecule, the values for the Tmax in [2] (Brain tissue), in series [2] (Cerebrospinal fluid) and in series [2] (Plasma) were 1 h, 1 h and 0.5 h, respectively.
